Measurements: ChEMBL document CHEMBL1153569, “Development of QSAR models for predicting hepatocarcinogenic toxicity of chemicals” (Eur J Med Chem, 2009)

Species: Mus musculus
Experiment: Hepatotoxicity in mouse assessed as carcinogenic potency
Details: in vivo

Row | Structure (SMILES) | pTD50
1 | Clc1cc2c(cc1Cl)Oc1cc(Cl)c(Cl)cc1O2 [2,3,7,8-TETRACHLORODIBENZO-P-DIOXIN] | 8.867
2 | ClC(Cl)=C(c1ccc(Cl)cc1)c1ccc(Cl)cc1 [DICHLORODIPHENYLDICHLOROETHYLENE] | 4.492
3 | C=C(C)[C@H]1CC=C(C)CC1 [D-LIMONENE] | 1.113
4 | O=C1C2(Cl)C3(Cl)C4(Cl)C(Cl)(Cl)C5(Cl)C3(Cl)C1(Cl)C5(Cl)C24Cl (centres undefined) [KEPONE] | 5.662
5 | CN(C)c1ccc(C(=O)c2ccc(N(C)C)cc2)cc1 [MICHLER'S KETONE] | 3.383
6 | CCCl [ETHYL CHLORIDE] | 0.93
7 | C=C(Cl)CSC(=S)N(CC)CC [SULFALLATE] | 3.32
8 | CCCN(CCC)c1c([N+](=O)[O-])cc(C(F)(F)F)cc1[N+](=O)[O-] [TRIFLURALIN] | 2.96
9 | COc1ccc([N+](=O)[O-])cc1N | 1.93
10 | c1ccc(NNc2ccccc2)cc1 [HYDRAZOBENZENE] | 3.793
11 | FC(F)=C(F)F [TETRAFLUOROETHYLENE] | 2.907
12 | ClC(Cl)(Cl)C(Cl)(Cl)Cl [HEXACHLOROETHANE] | 2.683
13 | CCOC(=O)C(O)(c1ccc(Cl)cc1)c1ccc(Cl)cc1 [CHLOROBENZILATE] | 2.862
14 | Nc1ccccc1C(=O)OC/C=C/c1ccccc1 [CINNAMYL ANTHRANILATE] | 1.529
15 | ClCC(Cl)(Cl)Cl | 2.419
16 | ClC(Cl)Br [BROMODICHLOROMETHANE] | 3.056
17 | CCc1ccc(C(c2ccc(CC)cc2)C(Cl)Cl)cc1 | 1.988
18 | O=NN(O)c1ccccc1 [CUPFERRON] | 2.439
19 | O=C(O)c1cc(/N=N/c2ccc(S(=O)(=O)Nc3ccccn3)cc2)ccc1O [SULFASALAZINE] | 1.866
20 | O=[N+]([O-])c1ccc2c3c(cccc13)CC2 | 3.638
21 | Cc1ccc(N)cc1N | 3.66
22 | COc1ccc(C)cc1N | 2.639
23 | Cc1ccc(Cl)cc1N | 2.77
24 | Nc1c(Br)cc(Br)c2c1C(=O)c1ccccc1C2=O [1-AMINO-2,4-DIBROMOANTHRA-QUINONE] | 2.313
25 | Cc1ccc([N+](=O)[O-])cc1N | 2.74
26 | Cc1noc(NS(=O)(=O)c2ccc(N)cc2)c1C [SULFISOXAZOLE] | 2.004
27 | Nc1cc(Cl)c(N)c(Cl)c1 | 1.941

Row | Structure (SMILES) | pTD50
28 | Nc1ccc2c(c1)C(=O)c1ccccc1C2=O | 2.185
29 | ClC(Cl)C(Cl)(Cl)Cl [PENTACHLOROETHANE] | 3.39
30 | C1CCOC1 [TETRAHYDROFURAN] | 1.233
31 | O=C1NC(=O)C(c2ccccc2)(c2ccccc2)N1 [PHENYTOIN] | 3.18
32 | O=[N+]([O-])c1ccc(Oc2ccc(Cl)cc2Cl)cc1 [NITROFEN] | 3.203
33 | ClC(Cl)=C(Cl)Cl [TETRACHLOROETHYLENE] | 3.1
34 | Nc1cc(Cl)cc(C(=O)O)c1Cl [CHLORAMBEN] | 1.607
35 | ClC=C(Cl)Cl [TRICHLOROETHYLENE] | 2.16
36 | CC(Cl)(Cl)Cl [TRICHLOROETHANE] | 3.38
37 | C1COCCO1 [DIOXANE] | 1.883
38 | C=CC=C [BUTADIENE] | 3.091
39 | NC(=S)NNC(N)=S | 1.423
40 | S=C1NCCN1 [ETHYLENE THIOUREA] | 3.341
41 | Clc1ccc(Cl)cc1 [1,4-DICHLOROBENZENE] | 2.328
42 | Nc1ccc(Cl)cc1N | 1.73
43 | ClC(Cl)C(Cl)Cl [1,1,2,2-TETRACHLOROETHANE] | 3.63
44 | Nc1ccc(Sc2ccc(N)cc2)cc1 [4,4'-THIODIANILINE] | 3.809
45 | Nc1cccc2c(N)cccc12 | 3.14
46 | Nc1ccc(Oc2ccc(N)cc2)cc1 | 2.9
47 | Cc1cc(C)c(N)cc1C | 4.344
48 | ClCC(Cl)CCl [1,2,3-TRICHLOROPROPANE] | 4.041
49 | CNc1ccc(N(CCO)CCO)cc1[N+](=O)[O-] [HC BLUE NO. 1] | 2.953
50 | ClC(Cl)Cl [CHLOROFORM] | 3.361
51 | ClCCl [METHYLENE CHLORIDE] | 1.581
52 | O=[N+]([O-])c1ccc2[nH]cnc2c1 | 2.458
53 | Nc1ccc(Cl)c(N)c1 | 1.9
54 | C=CC(=C)Cl [CHLOROPRENE] | 3.689
